Literature values, collected in patent US7060295B2, “Formulations for the prevention and treatment of insulin resistance and type 2 diabetes mellitus” (ChronoRX LLC, priority 2000, dated 2006).
Values belong to the compound of their own block, whether it stands above or below them.

Assays:
[1] = in vivo
[2] = supplementation
[3] = biological target: sulfonylurea receptor (Homo sapiens, UniProt Q09428); settings: β-cell membrane receptors
[4] = test system: perfused rat hearts
[5] = in vivo; remark: listed apart in the source
[6] = in vivo; remark: listed apart in the source
[7] = 1 year, 457 non-diabetic patients with android (abdominal) obesity
[8] = test system: insulin secreting β-cells
[9] = not given; remark: listed apart in the source
[10] = oral 60 mg twice daily for 8 weeks
[11] = test system: pancreatic islets; settings: islets simultaneously exposed to IL-1 beta
[12] = not given; remark: listed apart in the source
[13] = 600 mg/day, used alone, obese type 2 diabetes patients

Chain of sulfonylurea receptor (Q09428 whole entry, the tested form may be a part): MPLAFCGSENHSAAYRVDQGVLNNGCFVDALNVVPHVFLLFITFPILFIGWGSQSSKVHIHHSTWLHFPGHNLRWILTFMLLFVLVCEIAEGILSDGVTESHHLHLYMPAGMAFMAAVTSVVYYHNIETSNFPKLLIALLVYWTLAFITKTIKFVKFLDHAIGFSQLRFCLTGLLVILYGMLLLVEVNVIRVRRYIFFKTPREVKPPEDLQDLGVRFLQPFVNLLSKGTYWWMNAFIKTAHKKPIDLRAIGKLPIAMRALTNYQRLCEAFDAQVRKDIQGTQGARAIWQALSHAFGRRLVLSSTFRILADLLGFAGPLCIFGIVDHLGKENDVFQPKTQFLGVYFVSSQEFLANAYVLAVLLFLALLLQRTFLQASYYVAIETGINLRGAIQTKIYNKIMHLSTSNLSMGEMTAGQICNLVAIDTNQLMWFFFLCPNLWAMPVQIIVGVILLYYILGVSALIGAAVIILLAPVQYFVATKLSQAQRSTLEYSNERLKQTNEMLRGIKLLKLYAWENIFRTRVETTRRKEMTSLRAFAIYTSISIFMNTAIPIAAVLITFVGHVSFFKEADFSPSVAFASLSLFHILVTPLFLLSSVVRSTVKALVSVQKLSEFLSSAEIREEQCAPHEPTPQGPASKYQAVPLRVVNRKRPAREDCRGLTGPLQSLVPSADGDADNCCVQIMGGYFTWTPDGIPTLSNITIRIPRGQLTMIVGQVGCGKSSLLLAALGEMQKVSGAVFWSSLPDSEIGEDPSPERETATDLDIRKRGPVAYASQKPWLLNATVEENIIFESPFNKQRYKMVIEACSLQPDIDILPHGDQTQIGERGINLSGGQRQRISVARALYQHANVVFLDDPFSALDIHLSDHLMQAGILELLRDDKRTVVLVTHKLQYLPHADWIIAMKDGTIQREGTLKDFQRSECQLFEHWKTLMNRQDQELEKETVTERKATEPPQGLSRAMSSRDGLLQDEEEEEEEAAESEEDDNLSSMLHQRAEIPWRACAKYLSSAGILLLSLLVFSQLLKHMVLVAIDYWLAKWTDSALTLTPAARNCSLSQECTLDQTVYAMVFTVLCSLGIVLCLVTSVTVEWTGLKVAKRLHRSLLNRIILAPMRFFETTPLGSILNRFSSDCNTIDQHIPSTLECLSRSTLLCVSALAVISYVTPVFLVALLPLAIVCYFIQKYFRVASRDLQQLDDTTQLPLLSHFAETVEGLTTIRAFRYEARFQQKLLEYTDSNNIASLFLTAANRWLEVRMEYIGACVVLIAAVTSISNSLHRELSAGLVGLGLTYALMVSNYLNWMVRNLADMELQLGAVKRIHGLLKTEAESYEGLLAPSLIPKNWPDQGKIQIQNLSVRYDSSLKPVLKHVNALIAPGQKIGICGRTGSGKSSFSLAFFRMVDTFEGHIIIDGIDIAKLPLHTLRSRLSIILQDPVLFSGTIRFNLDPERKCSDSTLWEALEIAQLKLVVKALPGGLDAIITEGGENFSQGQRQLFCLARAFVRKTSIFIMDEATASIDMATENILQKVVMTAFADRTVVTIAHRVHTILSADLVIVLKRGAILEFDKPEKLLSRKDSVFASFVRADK
Chain of sulfonylurea receptor (Q14654 whole entry partner, the tested form may be a part): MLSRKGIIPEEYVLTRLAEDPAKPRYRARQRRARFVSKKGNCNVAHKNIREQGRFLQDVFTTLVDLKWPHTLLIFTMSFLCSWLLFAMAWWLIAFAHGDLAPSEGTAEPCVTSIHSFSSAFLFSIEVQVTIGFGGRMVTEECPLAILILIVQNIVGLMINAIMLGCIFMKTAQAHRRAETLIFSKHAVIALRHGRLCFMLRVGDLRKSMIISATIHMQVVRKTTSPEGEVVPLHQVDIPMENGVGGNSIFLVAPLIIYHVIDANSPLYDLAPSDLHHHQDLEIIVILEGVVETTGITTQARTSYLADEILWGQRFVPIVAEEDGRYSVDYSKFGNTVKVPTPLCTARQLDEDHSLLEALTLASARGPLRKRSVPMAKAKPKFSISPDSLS

Compound: CC(=O)c1ccc(S(=O)(=O)NC(=O)NC2CCCCC2)cc1 [Acetohexamide]
Duration of Action [1]: 12 to 18 h

Compound: CCCNC(=O)NS(=O)(=O)c1ccc(Cl)cc1 [Chlorpropamide]
Duration of Action [1]: 60 h

Compound: [Cr] [Cr, Chromium]
reduction of metformin requirements [2]: more than one-half

Compound: CCC1=C(C)CN(C(=O)NCCc2ccc(S(=O)(=O)NC(=O)N[C@H]3CC[C@H](C)CC3)cc2)C1=O [Glimepiride]
Duration of Action [1]: 16 to 24 h

Compound: Cc1cnc(C(=O)NCCc2ccc(S(=O)(=O)NC(=O)NC3CCCCC3)cc2)cn1 [Glipizide (XL), Glipizide]
Duration of Action [1]: 24 h

concentration range that saturates sulfonylurea receptors [3]: low nM
Compound: Cc1cnc(C(=O)NCCc2ccc(S(=O)(=O)NC(=O)NC3CCCCC3)cc2)cn1 [Glipizide]
Duration of Action [1]: 12 to 24 h

Compound: COc1ccc(Cl)cc1C(=O)NCCc1ccc(S(=O)(=O)NC(=O)NC2CCCCC2)cc1 [Glyburide]
glycolytic flux and lactate production [4]: dramatic increase

lactic acidosis, reported frequency [5]: 3 cases per 100,000 patient-years
Compound: CN(C)C(=N)N=C(N)N [Metformin, metformin]
lactic acidosis, reported incidence [5]: 0.03 /1,000 patient-years exposure
decrease of low-density lipoprotein (LDL) cholesterol levels (monotherapy): 10% to 15%
decrease of plasma triglyceride levels (monotherapy): 10% to 15%
weight loss (patients with type 2 diabetes, first 6 months of treatment): 2 to 3 kg
gastrointestinal side effects (diarrhea, nausea, abdominal pain, metallic taste) [6]: 20% to 30%
weight change [7]: significant weight loss

Compound: CCCCNC(=O)NS(=O)(=O)c1ccc(C)cc1 [Tolbutamide]
Duration of Action [1]: 6 to 12 h

Compound: O=C1O[C@H]([C@@H](O)CO)C(O)=C1O [ascorbate, ascorbic acid]
decrease of cellular insulin glycation [8]: 66–80%

amount absorbed from the intestine ([9]; oral): 15 to 87 % of ingested carnitine
tissue concentrations relative to plasma ([9]; skeletal and cardiac muscle, active transport): 20- to 50 fold
Compound: C[N+](C)(C)CC(O)CC(=O)[O-] (stereo not drawn) [carnitine, beta-hydroxy-gamma-N-trimethylaminobutyric acid]

Compound: COC1=C(OC)C(=O)C(C/C=C(\C)CC/C=C(\C)CC/C=C(\C)CC/C=C(\C)CC/C=C(\C)CC/C=C(\C)CC/C=C(\C)CC/C=C(\C)CC/C=C(\C)CCC=C(C)C)=C(C)C1=O [coenzyme Q10, Ubiquinone]
HDL-cholesterol [10]: increased
systolic and diastolic blood pressure, fasting and 2-h plasma insulin, glucose, triglycerides, lipid peroxides, malondialdehyde and diene conjugates [10]: all reduced

Compound: NC(=O)c1cccnc1 [nicotinamide]
concentration of maximum effect on recovery of glucose-induced insulin secretion [11]: 25 mmol/L

Compound: O=S(=O)([O-])[O-].[O]=[V+2] [vanadyl sulfate]
duration of effects after discontinuation ([12]; 100 mg/day for 3 weeks): up to 2 weeks
hepatic and peripheral insulin sensitivity ([12]; 100 mg/day, after 3 weeks): appear to improve

insulin efficiency [13]: further worsen insulin efficiency
Compound: vitamin E
